Test results: patent US8263610B2, “Substituted imidazolyl-5,6-dihydrobenzo[N]isoquinoline compounds” (ArQule, Inc., priority 2008, dated 2012)

What was measured:
MDA-MB-231 cells = assay: MTS assay, inhibition of cell growth; format: cell-based; conditions: Homo sapiens, compound at 10 μM, 72 hours
Protocol: (§1) MDA-MB-231, DLD-1, Kato III NCI-H1299, PACA-2 cells, were maintained at 37° C., 5% CO2 in DMEM media supplemented with 10% fetal bovine serum, penicillin/streptomycin and fungizone (Invitrogen). Cells were seeded into 96-well tissue culture plates at 3000 per well and cultured at 37° C. for 18 hours. Test compounds were dissolved and diluted to 300× in DMSO then further diluted 1:40 in DMEM before addition to cells (1:7.5 dilution). Cells were incubated with test compounds for 72 hours followed by incubation with tetrazolium compound (3-(4,5-dimethylthiazol-2-yl)-5-(3-carboxymethoxyphenyl)-2-(4-sulfophenyl)-2H-tetrazolium, inner salt; MTS) and the electron coupling reagent, phenazine methosulfate (PMS) for 4 hours. […] The ability of compounds to inhibit cell growth in this assay is correlated with the reduction of dehydrogenase enzyme activity found in metabolically active cells. The measurement of the absorbance of the formazan was assessed using an ENVISION™ (Perkin Elmer) microplate reader at 492 nm.

PACA-2 cells = assay: MTS assay, inhibition of cell growth; format: cell-based; conditions: compound at 10 μM, 72 hours
Protocol: as §1

NCI-H1299 cells = assay: MTS assay, inhibition of cell growth; format: cell-based; conditions: Homo sapiens, compound at 10 μM, 72 hours
Protocol: as §1

DLD-1 cells = assay: MTS assay, inhibition of cell growth; format: cell-based; conditions: Homo sapiens, compound at 10 μM, 72 hours
Protocol: as §1

Kato III cells = assay: MTS assay, inhibition of cell growth; format: cell-based; conditions: Homo sapiens, compound at 10 μM, 72 hours
Protocol: as §1

O=S(=O)(Cc1noc2ccccc12)NC1CCc2c(cnc3[nH]ncc23)C1 (centres unmarked) [1-(1,2-benzisoxazol-3-yl)-N-(6,7,8,9-tetrahydro-3H-pyrazolo[3,4-c]isoquinolin-7-yl)methanesulfonamide]
inhibition at 10 µM (MDA-MB-231 cells): 25 to 49% | inhibition at 10 µM (PACA-2 cells): 75 to 100% | inhibition at 10 µM (NCI-H1299 cells): 25 to 49% | inhibition at 10 µM (DLD-1 cells): 50 to 74% | inhibition at 10 µM (Kato III cells): 75 to 100%

O=C(Nc1cccc2ccccc12)NC1CCc2c(cnc3[nH]ncc23)C1 (centres unmarked) [1-(1-naphthyl)-3-(6,7,8,9-tetrahydro-3H-pyrazolo[3,4-c]isoquinolin-7-yl)urea]
inhibition at 10 µM (MDA-MB-231 cells): 50 to 74% | inhibition at 10 µM (PACA-2 cells): 25 to 49% | inhibition at 10 µM (NCI-H1299 cells): 25 to 49% | inhibition at 10 µM (DLD-1 cells): 75 to 100% | inhibition at 10 µM (Kato III cells): 75 to 100%

O=C(NCCc1ccccc1)NC1CCc2c(cnc3[nH]ncc23)C1 (centres unmarked) [1-(2-phenylethyl)-3-(6,7,8,9-tetrahydro-3H-pyrazolo[3,4-c]isoquinolin-7-yl)urea]
inhibition at 10 µM (MDA-MB-231 cells): 75 to 100% | inhibition at 10 µM (PACA-2 cells): 75 to 100% | inhibition at 10 µM (NCI-H1299 cells): 75 to 100% | inhibition at 10 µM (DLD-1 cells): 75 to 100% | inhibition at 10 µM (Kato III cells): 75 to 100%

O=C(Nc1cccc(Cl)c1F)NC1CCc2c(cnc3[nH]ncc23)C1 (centres unmarked) [1-(3-chloro-2-fluorophenyl)-3-(6,7,8,9-tetrahydro-3H-pyrazolo[3,4-c]isoquinolin-7-yl)urea]
inhibition at 10 µM (MDA-MB-231 cells): 75 to 100% | inhibition at 10 µM (PACA-2 cells): 75 to 100% | inhibition at 10 µM (NCI-H1299 cells): 75 to 100% | inhibition at 10 µM (DLD-1 cells): 75 to 100% | inhibition at 10 µM (Kato III cells): 75 to 100%

Cc1ccc(-c2n[nH]c3ncc4c(c23)CCN(C(=O)Nc2ccccc2)C4)o1 [1-(5-methylfuran-2-yl)-N-phenyl-3,6,8,9-tetrahydro-7H-pyrazolo[3,4-c][2,7]naphthyridine-7-carboxamide]
inhibition at 10 µM (MDA-MB-231 cells): 75 to 100% | inhibition at 10 µM (PACA-2 cells): 75 to 100% | inhibition at 10 µM (NCI-H1299 cells): 75 to 100% | inhibition at 10 µM (DLD-1 cells): 75 to 100% | inhibition at 10 µM (Kato III cells): 75 to 100%

O=C(C(c1ccccc1)N1CCNCC1)N1CCc2c(cnc3[nH]nc(Br)c23)C1 (centres unmarked) [1-bromo-7-[phenyl(piperperazin-1-yl)acetyl]-6,7,8,9-tetrahydro-3H-pyrazolo[3,4-c][2,7]naphthyridine]
inhibition at 10 µM (MDA-MB-231 cells): 75 to 100% | inhibition at 10 µM (PACA-2 cells): 75 to 100% | inhibition at 10 µM (NCI-H1299 cells): 75 to 100% | inhibition at 10 µM (DLD-1 cells): 75 to 100% | inhibition at 10 µM (Kato III cells): 75 to 100%

N[C@H](C(=O)N1CCc2c(cnc3[nH]ncc23)C1)c1ccccc1 [(1S)-2-oxo-1-phenyl-2-(3,6,8,9-tetrahydro-7H-pyrazolo[3,4-c][2,7]naphthyridin-7-yl)ethanamine]
inhibition at 10 µM (MDA-MB-231 cells): 50 to 74% | inhibition at 10 µM (PACA-2 cells): 50 to 74% | inhibition at 10 µM (DLD-1 cells): < 24%

Cc1cncc(Oc2cccc(NC(=O)N3CCc4c(cnc5[nH]nc(Br)c45)C3)c2)n1 [Example 403, 1-bromo-N-{3-[(6-methylpyrazin-2-yl)oxy]phenyl}-3,6,8,9-tetrahydro-7H-pyrazolo[3,4-c][2,7]naphthyridine-7-carboxamide]
melting point: 221 to 223 °C

Cc1nc(-c2cccc(NC(=O)N3CCc4c(cnc5[nH]nc(Br)c45)C3)c2)no1 [Example 404, 1-bromo-N-[3-(5-methyl-1,2,4-oxadiazol-3-yl)phenyl]-3,6,8,9-tetrahydro-7H-pyrazolo[3,4-c][2,7]naphthyridine-7-carboxamide]
melting point: > 152 °C

Cc1nc(-c2cccc(NC(=O)N3CCc4c(cnc5[nH]ncc45)C3)c2)no1 [Example 406, N-(3-(5-methyl-1,2,4-oxadiazol-3-yl)phenyl)-8,9-dihydro-3H-pyrazolo[3,4-c][2,7]naphthyridine-7(6H)-carboxamide]
melting point: > 140 °C

O=C(Nc1ccccc1)N1CCc2c(cnc3[nH]nc(-c4ccccc4)c23)C1 [Example 407, N,1-diphenyl-8,9-dihydro-3H-pyrazolo[3,4-c][2,7]naphthyridine-7(6H)-carboxamide]
melting point: 150 to 170 °C

O=C(Nc1cccc(Cc2ccccc2)c1)N1CCc2c(cnc3[nH]ncc23)C1 [Example 408, N-(3-benzylphenyl)-8,9-dihydro-3H-pyrazolo[3,4-c][2,7]naphthyridine-7(6H)-carboxamide]
melting point: 175 to 178 °C

COc1ccc(-c2ccccc2)cc1NC(=O)N1CCc2c(cnc3[nH]ncc23)C1 [Example 409, N-(4-methoxybiphenyl-3-yl)-8,9-dihydro-3H-pyrazolo[3,4-c][2,7]naphthyridine-7(6H)-carboxamide]
melting point: 148 to 151 °C

O=C(c1ccccc1)N1CCc2c(cnc3[nH]ncc23)C1 [Example 427, (8,9-dihydro-3H-pyrazolo[3,4-c][2,7]naphthyridin-7(6H)-yl)(phenyl)methanone]
melting point: 198 to 200 °C

O=C(NC1CCc2c(cnc3[nH]ncc23)C1)c1ccccc1 (centres unmarked) [Example 430, N-(6,7,8,9-tetrahydro-3H-pyrazolo[3,4-c]isoquinolin-7-yl)benzamide]
melting point: > 300 °C

O=C(c1ccccc1)N1CCc2cnc3[nH]ncc3c2-c2ccccc21 [Example 431, 8-(phenylcarbonyl)-3,6,7,8-tetrahydropyrazolo[4′,3′:5,6]pyrido[3,4-d][1]benzazepine]
melting point: > 150 °C

O=C(O)C(c1ccccc1)N1CCc2c(cnc3[nH]ncc23)C1 (centres unmarked) [Example 433, 2-(8,9-dihydro-3H-pyrazolo[3,4-c][2,7]naphthyridin-7(6H)-yl)-2-phenylacetic acid]
melting point: 237 to 240 °C

COc1ccc(Cn2ncc3c4c(cnc32)CN(c2ncnc3[nH]nc(C(=O)c5ccccc5)c23)CC4)cc1 [Example 434, (4-(3-(4-methoxybenzyl)-8,9-dihydro-3H-pyrazolo[3,4-c][2,7]naphthyridin-7(6H)-yl)-1H-pyrazolo[3,4-d]pyrimidin-3-yl)(phenyl)methanone]
melting point: > 145 °C

O=C(c1ccccc1)c1c[nH]c2ncnc(N3CCc4c(cnc5[nH]nc(Br)c45)C3)c12 [Example 436]
melting point: 300 to 302 °C

COc1ccc(Cn2ncc3c4c(cnc32)CN(C(=N)N)CC4)cc1 [Example 474, 3-(4-methoxybenzyl)-8,9-dihydro-3H-pyrazolo[3,4-c][2,7]naphthyridine-7(6H)-carboximidamide]
melting point: 255 to 256 °C

O=C(Cc1ccccc1)N1CCc2c(cnc3[nH]ncc23)C1 [Example 476, 1-(8,9-dihydro-3H-pyrazolo[3,4-c][2,7]naphthyridin-7(6H)-yl)-2-phenylethanone]
melting point: 164 to 166 °C

O=C(NC[C@@H]1CCCO1)c1cccc(NC(=O)N2CCc3c(cnc4[nH]ncc34)C2)c1 [N-(3-{[(2S)-tetrahydrofuran-2-ylmethyl]carbamoyl}phenyl)-3,6,8,9-tetrahydro-7H-pyrazolo[3,4-c][2,7]naphthyridine-7-carboxamide]
inhibition at 10 µM (MDA-MB-231 cells): 75 to 100% | inhibition at 10 µM (PACA-2 cells): 75 to 100% | inhibition at 10 µM (DLD-1 cells): 75 to 100% | inhibition at 10 µM (Kato III cells): 75 to 100%

CC(=O)Nc1cccc(-c2n[nH]c3ncc4c(c23)CCNC4)c1 [N-[3-(6,7,8,9-tetrahydro-3H-pyrazolo[3,4-c][2,7]naphthyridin-1-yl)phenyl]acetamide]
inhibition at 10 µM (MDA-MB-231 cells): 25 to 49% | inhibition at 10 µM (DLD-1 cells): 50 to 74% | inhibition at 10 µM (Kato III cells): 75 to 100%

c1ccc(CNC2CCc3c(cnc4[nH]ncc34)C2)cc1 (centres unmarked) [N-benzyl-6,7,8,9-tetrahydro-3H-pyrazolo[3,4-c]isoquinolin-7-amine]
inhibition at 10 µM (MDA-MB-231 cells): < 24% | inhibition at 10 µM (PACA-2 cells): < 24% | inhibition at 10 µM (DLD-1 cells): < 24%

c1ccc(C2Cc3cnc4[nH]ncc4c3-c3ccccc32)cc1 (centres unmarked) [drawing 555, 7-phenyl-6,7-dihydro-3H-benzo[f]pyrazolo[3,4-c]isoquinoline]
inhibition at 10 µM (MDA-MB-231 cells): < 24% | inhibition at 10 µM (PACA-2 cells): < 24% | inhibition at 10 µM (DLD-1 cells): 25 to 49% | inhibition at 10 µM (Kato III cells): 25 to 49%

Clc1ccc(C2Cc3cnc4[nH]ncc4c3-c3ccccc32)c(Cl)c1 (centres unmarked) [drawing 557, 7-(2,4-dichlorophenyl)-6,7-dihydro-3H-benzo[f]pyrazolo[3,4-c]isoquinoline]
inhibition at 10 µM (PACA-2 cells): < 24% | inhibition at 10 µM (NCI-H1299 cells): 25 to 49% | inhibition at 10 µM (DLD-1 cells): 50 to 74% | inhibition at 10 µM (Kato III cells): 50 to 74%

O=C(Nc1ccccc1)NC1CCc2c(cnc3[nH]ncc23)C1 (centres unmarked) [drawing 560, 1-phenyl-3-(6,7,8,9-tetrahydro-3H-pyrazolo[3,4-c]isoquinolin-7-yl)urea]
inhibition at 10 µM (PACA-2 cells): < 24% | inhibition at 10 µM (DLD-1 cells): < 24%

Cc1cc(C)c2c(c1)-c1c(cnc3[nH]ncc13)CC2 [drawing 561, 8,10-dimethyl-6,7-dihydro-3H-benzo[f]pyrazolo[3,4-c]isoquinoline]
inhibition at 10 µM (MDA-MB-231 cells): 25 to 49% | inhibition at 10 µM (PACA-2 cells): < 24% | inhibition at 10 µM (DLD-1 cells): 75 to 100% | inhibition at 10 µM (Kato III cells): 25 to 49%

COc1ccc2c(c1)-c1c(cnc3[nH]ncc13)CC2 [drawing 562, 10-methoxy-6,7-dihydro-3H-benzo[f]pyrazolo[3,4-c]isoquinoline]
inhibition at 10 µM (PACA-2 cells): < 24% | inhibition at 10 µM (DLD-1 cells): < 24% | inhibition at 10 µM (Kato III cells): 25 to 49%

Cc1nc(-c2cccc(NC(=O)N3CCc4c(cnc5[nH]nc(Br)c45)C3)c2)no1 [drawing 581, 1-bromo-N-[3-(5-methyl-1,2,4-oxadiazol-3-yl)phenyl]-3,6,8,9-tetrahydro-7H-pyrazolo[3,4-c][2,7]naphthyridine-7-carboxamide]
inhibition at 10 µM (PACA-2 cells): < 24% | inhibition at 10 µM (Kato III cells): < 24%

O=C(Nc1ccccc1)C1CCc2c(cnc3[nH]ncc23)C1 (centres unmarked) [drawing 584, N-phenyl-6,7,8,9-tetrahydro-3H-pyrazolo[3,4-c]isoquinoline-7-carboxamide]
inhibition at 10 µM (MDA-MB-231 cells): < 24% | inhibition at 10 µM (PACA-2 cells): < 24% | inhibition at 10 µM (DLD-1 cells): 50 to 74% | inhibition at 10 µM (Kato III cells): 75 to 100%
